This note sets out measurements from US20210024628A1, “METHODS FOR MODULATING INNATE LYMPHOID CELL ACTIVITY, ANTIBODY DRUG CONJUGATES AND USES IN THERAPY” (INSERM (INSTITUT NATIONAL DE LA SANTÉ ET DE LA RECHERCHE …, priority 2018, published 2021).

Experiment [1] has as its system NK cells. As to the kind of experiment: In vitro splenocyte stimulation: NK cell degranulation (CD107a). The class given is cell-based, mice. To be noted: stimulation with anti-NK1.1 antibodies or PMA and ionomycine, data not shown. The method, then:
Splenocytes from control and GR^Ncr1-iCre mice were stimulated in vitro in complete culture medium (RPMI 10% FCS, 100 μg/ml penicillin/streptomycin, 2 mM 1-glutamine, 1 mM sodium pyruvate, and 0.01 M Hepes) with: 25 ng/ml IL-12 (eBiosciences), 25 ng/ml IL-15 (Peprotech) and 20 ng/ml IL-18 (MBL) alone or in combination, or with PMA (200 ng/ml, Sigma) and ionomycin (1 μg/ml, Sigma). For NK1.1 stimulation 96 well plates (Immulon 2HB) were coated overnight at 37° C. with 2.5 ul/well anti-NK1.1 Ab (PK136, eBiosciences) or IgG2a isotype control before cell plating. During stimulation, 250 or 500 nM corticosterone (Sigma; dissolved in ethanol) or the same volume of vehicle alone were added to the medium. Cells were stimulated at 37° C. in the presence of Golgi Stop and Golgi Plug from BD Biosciences. After 4 h of stimulation, the cells were washed and stained for FACS analysis. […]
Single-cell suspensions were obtained from the spleen by scratching it through 70 um cell strainer, or from the liver by scratching it through 100 um cell strainer and subsequent lymphocyte isolation on a 37.5%-67.5% Percoll gradient. […] Stained samples were analyzed in a BD LSRII flow cytometer (BD Biosciences). Apoptosis was detected with the FITC Annexin V Apoptosis Detection Kit I from BD Biosciences, according to the manufacturer's protocol.

The test system of experiment [2] is NK cells. Description: In vitro splenocyte stimulation with cytokines: PD1 expression (FACS). The class given is cell-based, mice. How it is done: Splenocytes from control and GR^Ncr1-iCre mice were stimulated in vitro in complete culture medium (RPMI 10% FCS, 100 μg/ml penicillin/streptomycin, 2 mM 1-glutamine, 1 mM sodium pyruvate, and 0.01 M Hepes) with: 25 ng/ml IL-12 (eBiosciences), 25 ng/ml IL-15 (Peprotech) and 20 ng/ml IL-18 (MBL) alone or in combination, or with PMA (200 ng/ml, Sigma) and ionomycin (1 μg/ml, Sigma). For NK1.1 stimulation 96 well plates (Immulon 2HB) were coated overnight at 37° C. with 2.5 ul/well anti-NK1.1 Ab (PK136, eBiosciences) or IgG2a isotype control before cell plating. During stimulation, 250 or 500 nM corticosterone (Sigma; dissolved in ethanol) or the same volume of vehicle alone were added to the medium. Cells were stimulated at 37° C. in the presence of Golgi Stop and Golgi Plug from BD Biosciences. After 4 h of stimulation, the cells were washed and stained for FACS analysis. For CD107a staining, 2.5 ul/well of anti-CD107a-FITC antibody (1D4B, BD Biosciences) were added during stimulation.
Single-cell suspensions were obtained from the spleen by scratching it through 70 um cell strainer, or from the liver by scratching it through 100 um cell strainer and subsequent lymphocyte isolation on a 37.5%-67.5% Percoll gradient. For isolation of small intestine lamina propria cells, intestines were cut longitudinally, then transversally in 2-3 cm pieces, thoroughly rinsed with PBS, and shaken for 30 minutes in PBS containing 10% FBS, 15 mM Hepes and 5 mM EDTA to remove intraepithelial and epithelial cells. Intestines were then digested with collagenase VIII (300UI/mL; Sigma) in complete RPMI for 45 minutes at 37° C. under agitation, and lamina propria lymphocytes were isolated on a 40%-100% Percoll gradient. Cells were incubated with the Fc blocking antibody (2.4G2) and with a fixable blue dead-cell stain kit (Invitrogen). Surface molecules were stained with antibodies against: CD45.2 (104), CD3 (145-2C11), CD19 (1D3), NK1.1 (PK136), CD49a (Ha31/8), CD11b (M1/70), MHCII (M5/114.15.2), TCRb (H57-597), PD1 (J43, and Hamster IgG2 isotype control), PDL1 (MIHS) from BD Biosciences; NKp46 (29A1.4), CD49b (DX5), F4/80 (BM8), Ly49H (3D10) from eBioscience; CD11c (N418), PD1 (RMP1-30, and Rat IgG2b isotype control), PDL2 (TY25) and Ly6G (1A8) from Biolegend. For intracellular staining, cells were fixed and permeabilized with an intracellular staining kit (eBioscience), and the following antibodies were used: anti-IFN-(XMG1.2) from Biolegend; anti-granzyme B (GB11), anti-Rort (Q31-378), anti-IL17 (TC11-18H10), anti-Ki67 (B56) from BD Biosciences, anti-IL-22 (JOP eBioscience, coupled to Alexa Fluor 647 with an antibody labeling kit from Life Technologies), anti-GR XP rabbit mAb (D8H2) and rabbit mAb IgG XP (DA1E) from Cell Signaling Technology. Stained samples were analyzed in a BD LSRII flow cytometer (BD Biosciences). Apoptosis was detected with the FITC Annexin V Apoptosis Detection Kit I from BD Biosciences, according to the manufacturer's protocol.

Regarding `C[C@]12C[C@H](O)[C@H]3[C@@H](CCC4=CC(=O)CC[C@@]43C)[C@@H]1CC[C@@H]2C(=O)CO` [Corticosterone, (11β)-11,21-Dihydroxypregn-4-ene-3,20-dione], the “ability of NK cells to degranulate (measured by their CD107a expression)” value with NK cells [1] is given as “did not affect”. Besides, the “PD1 expression on NK cells” value in the experiment on NK cells [2] (corticosterone (250 or 500 nM) with the combination IL-15+IL-18, splenocytes, 4 h) is on record as “able to induce PD1 expression on NK cells, in a dose-dependent manner”; with NK cells [2] (corticosterone alone, splenocytes, 4 h at 37° C.) it was “not able to induce PD1 expression”; in the experiment on NK cells [2] (corticosterone in the presence of IL-15, splenocytes, 4 h), “not able to induce PD1 expression”; in the experiment with NK cells [2] (corticosterone with IL-15+IL-18 and addition of IL-12), “abrogate this effect”. The “PD1 induction on T cells” value in the experiment on NK cells [2] (corticosterone in addition to IL-15 and IL-18) is “not observed”. For the same compound, the “PD1 induction on NK cells from GR^Ncr1-iCre mice” value in the experiment on NK cells [2] (corticosterone in addition to IL-15 and IL-18, GR-deficient NK cells) is on record as “not observed”.
